Assay results published in PubChem BioAssay AID330 (DTP/NCI, 2004).
Where “and” joins values, the source holds several entries; their conditions need not be identical. Equal values may be shown once. Inconclusive results and toxic doses are left out. The calls were made as follows: active = survival T/C of 150% or more; inactive = T/C below 125% in these data.

Test system: P388 leukemia ip, CD2F1 mice, survival T/C
Test: NCI In Vivo Anticancer Drug Screen. Data for tumor model P388 Leukemia (intraperitoneal) in CD2F1 (CDF1) mice
Conditions: endpoint: median survival time, higher = longer survival
In short: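 Mice carrying the transplanted tumor received test compound or vehicle. Survival was recorded in each group, and the value is the treated-group measurement divided by that of the vehicle-treated control group.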

[1] = dose: 50.0 mg/kg/injection, schedule: Q01DX005 (ip), vehicle: Klucel (hydroxypropylcellulose) (HPC)
[2] = dose: 100.0 mg/kg/injection, schedule: Q01DX005 (ip), vehicle: Klucel (hydroxypropylcellulose) (HPC)
[3] = dose: 200.0 mg/kg/injection, schedule: Q01DX005 (ip), vehicle: Klucel (hydroxypropylcellulose) (HPC)
[4] = dose: 25.0 mg/kg/injection, schedule: Q01DX005 (ip), vehicle: saline
[5] = dose: 50.0 mg/kg/injection, schedule: Q01DX005 (ip), vehicle: saline
[6] = dose: 100.0 mg/kg/injection, schedule: Q01DX005 (ip), vehicle: saline
[7] = dose: 200.0 mg/kg/injection, schedule: Q01DX005 (ip), vehicle: saline
[8] = dose: 100.0 mg/kg/injection, schedule: Q01DX001 (ip), vehicle: Klucel (hydroxypropylcellulose) (HPC)
[9] = dose: 6.25 mg/kg/injection, schedule: Q01DX009 (ip), vehicle: saline with Tween-80
[10] = dose: 12.5 mg/kg/injection, schedule: Q01DX009 (ip), vehicle: saline with Tween-80
[11] = dose: 25.0 mg/kg/injection, schedule: Q01DX005 (ip), vehicle: Klucel (hydroxypropylcellulose) (HPC)
[12] = dose: 60.0 mg/kg/injection, schedule: Q01DX005 (ip), vehicle: saline with Tween-80
[13] = dose: 50.0 mg/kg/injection, schedule: Q01DX005 (ip), vehicle: saline with Tween-80
[14] = dose: 100.0 mg/kg/injection, schedule: Q01DX005 (ip), vehicle: saline with Tween-80
[15] = dose: 200.0 mg/kg/injection, schedule: Q01DX005 (ip), vehicle: saline with Tween-80

Measured: T/C

O=c1oc2c(-c3c(O)c(=O)oc4ccccc34)cc(O)cc2s1
inactive: [1] 96 % of control | [2] 103 % of control | [3] 104 % of control

CCOC(=O)NC(=O)CCC(=O)Nc1ccc2ccccc2c1
inactive: dose: 100.0 mg/kg/injection, schedule: Q04DX003 (ip), vehicle: saline with Tween-80 97 % of control | dose: 200.0 mg/kg/injection, schedule: Q04DX003 (ip), vehicle: saline with Tween-80 95 % of control | dose: 400.0 mg/kg/injection, schedule: Q04DX003 (ip), vehicle: saline with Tween-80 96 % of control

COc1c2occc2c(NC(=O)CI)c2ccc(=O)oc12
inactive: dose: 25.0 mg/kg/injection, schedule: Q04DX002 (ip), vehicle: saline with Tween-80 102 % of control | dose: 50.0 mg/kg/injection, schedule: Q04DX002 (ip), vehicle: saline with Tween-80 101 % of control | dose: 100.0 mg/kg/injection, schedule: Q04DX002 (ip), vehicle: saline with Tween-80 101 % of control

CNC(=O)N(C)C(C)=O
inactive: dose: 100.0 mg/kg/injection, schedule: Q04DX003 (ip), vehicle: saline 123 % of control and 94 % of control | dose: 200.0 mg/kg/injection, schedule: Q04DX003 (ip), vehicle: saline 99 % of control and 124 % of control

O=C1NC(=O)C2(CCC(O)C2)c2cc[n+]([O-])cc21 (stereo not given)
inactive: dose: 12.5 mg/kg/injection, schedule: Q01DX005 (ip), vehicle: saline 96 % of control | [4] 105 % of control | [5] 105 % of control | [6] 100 % of control

c1ccc(CN2COC3CCCCC32)cc1 (stereo not given)
inactive: [4] 107 % of control and 108 % of control | [5] 101 % of control and 105 % of control and 119 % of control | [6] 101 % of control and 107 % of control and 121 % of control | [7] 103 % of control and 105 % of control

CCOC(=O)C(=CNc1cc(OC)cc2cccnc12)C(=O)OCC
inactive: [1] 96 % of control | [2] 88 % of control | [3] 88 % of control

CC(O)c1cc2c(cc1I)OCO2 (stereo not given)
inactive: [8] 106 % of control | dose: 200.0 mg/kg/injection, schedule: Q01DX001 (ip), vehicle: Klucel (hydroxypropylcellulose) (HPC) 108 % of control | dose: 400.0 mg/kg/injection, schedule: Q01DX001 (ip), vehicle: Klucel (hydroxypropylcellulose) (HPC) 107 % of control

COc1cccc2c1[n+]([O-])c1cccc(O)c1[n+]2[O-]
inactive: dose: 1.56 mg/kg/injection, schedule: Q01DX009 (ip), vehicle: saline with Tween-80 112 % of control | dose: 3.12 mg/kg/injection, schedule: Q01DX009 (ip), vehicle: saline with Tween-80 109 % of control | [9] 114 % of control | [10] 124 % of control

O=c1[nH]c2nc3ccccc3n2nc1-c1ccccc1
inactive: [8] 89 % of control

CN(C)c1ccc2c(SCC(=O)OCC(=O)[C@@]3(O)CC[C@H]4[C@@H]5CCC6=CC(=O)C=C[C@]6(C)[C@H]5C(=O)C[C@@]43C)c3ccc(N(C)C)cc3nc2c1
inactive: [11] 113 % of control

COc1cc2c(cc1OC)C(NC=O)CCC2 (stereo not given)
inactive: dose: 25.0 mg/kg/injection, schedule: Q01DX009 (ip), vehicle: other 101 % of control | dose: 50.0 mg/kg/injection, schedule: Q01DX009 (ip), vehicle: other 104 % of control | dose: 100.0 mg/kg/injection, schedule: Q01DX009 (ip), vehicle: other 100 % of control | dose: 200.0 mg/kg/injection, schedule: Q01DX009 (ip), vehicle: other 101 % of control | dose: 400.0 mg/kg/injection, schedule: Q01DX009 (ip), vehicle: other 86 % of control

C[C@@H]1C[C@H]2[C@@H]3CCC4=CC(=O)C=C[C@]4(C)[C@@]3(F)[C@@H](O)C[C@]2(C)[C@@]1(O)C(=O)CO
inactive: dose: 25.0 mg/kg/injection, schedule: Q01DX009 (ip), vehicle: saline sonified 100 % of control | dose: 50.0 mg/kg/injection, schedule: Q01DX009 (ip), vehicle: saline sonified 90 % of control

Oc1ccc(Cl)cc1CN1CCN(Cc2cc(Cl)ccc2O)CC1
inactive: dose: 15.0 mg/kg/injection, schedule: Q01DX005 (ip), vehicle: saline with Tween-80 100 % of control | dose: 30.0 mg/kg/injection, schedule: Q01DX005 (ip), vehicle: saline with Tween-80 97 % of control | [12] 89 % of control

COc1cc2c(c(OC)c1OC)-c1ccc(SC)c(=O)cc1C(N(C)C(=O)C(F)(F)F)CC2 (stereo not given)
inactive: dose: 1.25 mg/kg/injection, schedule: Q01DX009 (ip), vehicle: Klucel (hydroxypropylcellulose) (HPC) 109 % of control | dose: 2.5 mg/kg/injection, schedule: Q01DX009 (ip), vehicle: Klucel (hydroxypropylcellulose) (HPC) 111 % of control and 122 % of control | dose: 20.0 mg/kg/injection, schedule: Q01DX009 (ip), vehicle: Klucel (hydroxypropylcellulose) (HPC) 89 % of control

COC(=O)CCC1=CC(=O)C(OC)=CC1=O
inactive: [9] 110 % of control | [10] 97 % of control | dose: 25.0 mg/kg/injection, schedule: Q01DX009 (ip), vehicle: saline with Tween-80 99 % of control

CC(CNC(=O)CCOS(C)(=O)=O)CNC(=O)CCOS(C)(=O)=O
inactive: dose: 6.25 mg/kg/injection, schedule: Q01DX009 (ip), vehicle: saline 105 % of control | dose: 12.5 mg/kg/injection, schedule: Q01DX009 (ip), vehicle: saline 106 % of control | dose: 25.0 mg/kg/injection, schedule: Q01DX009 (ip), vehicle: saline 100 % of control | dose: 50.0 mg/kg/injection, schedule: Q01DX009 (ip), vehicle: saline 102 % of control

COC(=O)C(Cc1ccccc1C#N)(OC)OC
inactive: [13] 98 % of control | [14] 101 % of control | [15] 98 % of control

O=[N+]([O-])c1cc(Br)c2cccc3c2c1CC3
inactive: [11] 91 % of control | [1] 93 % of control | [2] 90 % of control

CCC1=C(C(C)OCCO)C(=O)c2ccccc2C1=O (stereo not given)
inactive: [13] 96 % of control | [14] 100 % of control | [15] 94 % of control

COc1ccc(CC2=CC(=O)C(C)=CC2=O)cc1
inactive: dose: 6.25 mg/kg/injection, schedule: Q01DX005 (ip), vehicle: saline with Tween-80 98 % of control | dose: 12.5 mg/kg/injection, schedule: Q01DX005 (ip), vehicle: saline with Tween-80 91 % of control | dose: 25.0 mg/kg/injection, schedule: Q01DX005 (ip), vehicle: saline with Tween-80 97 % of control

FC(F)(F)c1ccc(-c2nn[nH]n2)cc1
inactive: dose: 60.0 mg/kg/injection, schedule: Q01DX005 (ip), vehicle: Klucel (hydroxypropylcellulose) (HPC) 107 % of control | dose: 120.0 mg/kg/injection, schedule: Q01DX005 (ip), vehicle: Klucel (hydroxypropylcellulose) (HPC) 101 % of control

N#CC1(OC2OC(CO)C(O)C(O)C2O)C=CCC1 (stereo not given)
inactive: [4] 101 % of control | [5] 103 % of control | [6] 98 % of control | [7] 96 % of control

O=C(Nc1ccc(Cl)cc1)Nc1nnc2ncc3c(n12)CCCCCCCCCC3
inactive: [12] 102 % of control | dose: 120.0 mg/kg/injection, schedule: Q01DX005 (ip), vehicle: saline with Tween-80 87 % of control

COc1ccc2c(c1)nc(-c1ccccn1)n2CCc1ccccn1
inactive: dose: 50.0 mg/kg/injection, schedule: Q04DX002 (ip), vehicle: Klucel (hydroxypropylcellulose) (HPC) 113 % of control | dose: 100.0 mg/kg/injection, schedule: Q04DX002 (ip), vehicle: Klucel (hydroxypropylcellulose) (HPC) 101 % of control | dose: 200.0 mg/kg/injection, schedule: Q04DX002 (ip), vehicle: Klucel (hydroxypropylcellulose) (HPC) 104 % of control | dose: 400.0 mg/kg/injection, schedule: Q04DX002 (ip), vehicle: Klucel (hydroxypropylcellulose) (HPC) 101 % of control
